For test [1], the system named is T47D (PI3Kα-H1047R) cell line. Put plainly: HTRF phospho-AKT(S473) cell assay in T47D cells. The format is cell-based, human. Conditions: Homo sapiens, 2 hours compound incubation. Put shortly:
(§1)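 HTRF read-out of phospho-AKT(S473) in lysates gave IC50 values after 2 h compound exposure at 37° C. Dose series was 12 points at 1:3, topping at 5 μM for T47D and 10 μM for SKBR3. Only SKBR3 received 70 ng/ml PDGF-BB during the last 15 minutes.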
For orientation: TR-FRET usually uses a lanthanide donor and a delayed reading to cut background.

The subject of test [2] is SKBR3 (PI3Kα-Wild Type) cell line. Put plainly: HTRF phospho-AKT(S473) cell assay in SKBR3 cells. The format is cell-based, human. Conditions: Homo sapiens, SK-BR-3, 2 hours compound incubation, PDGF-BB stimulated. The procedure, abridged: as §1
The mark [3] stands for this setting: HTRF phospho-AKT(S473), T47D (PI3Kα-H1047R) cells.
Setting [4] is: HTRF phospho-AKT(S473), SKBR3 (PI3Kα-Wild Type) cells.
The mark [5] stands for this setting: T47D (PI3Kα-H1047R) cells, HTRF phospho-AKT(S473).
[6] abbreviates: SKBR3 (PI3Kα-Wild Type) cells, HTRF phospho-AKT(S473).

pIC50: −log10 of the molar value.

As for `Cc1cc([C@@H](C)Nc2ccc(Cl)nc2C(=O)NS(C)(=O)=O)c2nc(N3CCC(c4ncc(C(F)(F)F)cn4)CC3)n(C)c(=O)c2c1` [Compound 630, (R)-6-chloro-3-((1-(3,6-dimethyl-4-oxo-2-(4-(5-(trifluoromethyl)pyrimidin-2-yl)piperidin-1-yl)-3,4-dihydroquinazolin-8-yl)ethyl)amino)-N-(methylsulfonyl) picolinamide], the pIC50 (commonly the negative decadic logarithm of the IC50, by convention in mol/L) in test [1] (setting [3]) was 6.00 to 6.30; in test [2] (setting [4]) it was no more than 5.30.

As to `Cc1cc([C@@H](C)Nc2ccc(Cl)nc2C(=O)NS(C)(=O)=O)c2nc(N3CCN(c4cc[nH]n4)CC3)n(C)c(=O)c2c1` [Compound 204, (R)-3-((1-(2-(4-(1H-pyrazol-3-yl)piperazin-1-yl)-3,6-dimethyl-4-oxo-3,4-dihydroquinazolin-8-yl)ethyl)amino)-6-chloro-N-(methylsulfonyl) picolinamide], the pIC50 in test [1] (setting [5]) is greater than 6.60; in test [2] (setting [6]) it was 5.30 to 6.00.

Consider `Cc1cc([C@@H](C)Nc2ccc(Cl)nc2C(=O)NS(C)(=O)=O)c2nc([C@H]3[C@@H]4CN(c5cnc(C)nc5)C[C@@H]43)n(C)c(=O)c2c1` [Compound 820, 6-chloro-3-(((R)-1-(3,6-dimethyl-2-((1R,5S,6r)-3-(2-methylpyrimidin-5-yl)-3-azabicyclo[3.1.0]hexan-6-yl)-4-oxo-3,4-dihydroquinazolin-8-yl)ethyl)amino)-N-(methylsulfonyl) picolinamide], for which the pIC50 in test [1] (setting [3]) was greater than 6.60; in test [2] (setting [4]), 5.30 to 6.00.

Consider `Cc1cc([C@@H](C)Nc2ccc(Cl)nc2C(=O)NS(C)(=O)=O)c2nc(-c3ccc4nn(C)c(C)c4c3)n(C)c(=O)c2c1` [Compound 842, (R)-6-chloro-3-((1-(2-(2,3-dimethyl-2H-indazol-5-yl)-3,6-dimethyl-4-oxo-3,4-dihydroquinazolin-8-yl)ethyl)amino)-N-(methylsulfonyl) picolinamide], for which the pIC50 in test [1] (T47D (PI3Kα-H1047R) cell line, phospho-AKT(S473) HTRF) was greater than 6.60; in test [2] (SKBR3 (PI3Kα-Wild Type) cell line, phospho-AKT(S473) HTRF), 5.30 to 6.00.

As to `Cc1cc([C@@H](C)Nc2ccc(Cl)nc2C(=O)NS(C)(=O)=O)c2nc(N3C[C@@H]4[C@H](C3)[C@H]4n3nccc3C)n(C)c(=O)c2c1` [Compound 417, 6-chloro-3-(((R)-1-(3,6-dimethyl-2-((1R,5S,6S)-6-(5-methyl-1H-pyrazol-1-yl)-3-azabicyclo[3.1.0]hexan-3-yl)-4-oxo-3,4-dihydroquinazolin-8-yl)ethyl)amino)-N-(methylsulfonyl) picolinamide], the pIC50 is greater than 6.60 in test [1] (setting [5]) and 5.30 to 6.00 in test [2] (setting [6]).

As for `Cc1cc([C@@H](C)Nc2ccc(Cl)nc2C(=O)NS(C)(=O)=O)c2nc(N3CCC[C@H](c4ccc(N)cn4)C3)n(C)c(=O)c2c1` (relative stereo) [Compound 307, 3-(((R)-1-(2-((R*)-3-(5-aminopyridin-2-yl)piperidin-1-yl)-3,6-dimethyl-4-oxo-3,4-dihydroquinazolin-8-yl)ethyl)amino)-6-chloro-N-(methylsulfonyl) picolinamide], the pIC50 is greater than 6.60 in test [1] (setting [5]) and no more than 5.30 in test [2] (setting [6]).

For `Cc1cc([C@@H](C)Nc2ccc(Cl)nc2C(=O)NS(C)(=O)=O)c2nc(-c3ccc4c(cnn4CC(F)(F)F)c3)n(C)c(=O)c2c1` [Compound 783, (R)-6-chloro-3-((1-(3,6-dimethyl-4-oxo-2-(1-(2,2,2-trifluoroethyl)-1H-indazol-5-yl)-3,4-dihydroquinazolin-8-yl)ethyl)amino)-N-(methylsulfonyl) picolinamide], the pIC50 in test [1] (setting [3]) is greater than 6.60; in test [2] (setting [4]) it was 5.30 to 6.00.

Turning to `Cc1cc([C@@H](C)Nc2ccc(Cl)nc2C(=O)NS(C)(=O)=O)c2nc(N3CCN(c4nc(C)ncc4Cl)CC3)n(C)c(=O)c2c1` [Compound 727, (R)-6-chloro-3-((1-(2-(4-(5-chloro-2-methylpyrimidin-4-yl)piperazin-1-yl)-3,6-dimethyl-4-oxo-3,4-dihydroquinazolin-8-yl)ethyl)amino)-N-(methylsulfonyl) picolinamide], the pIC50 in test [1] (setting [3]) was 6.30 to 6.60; in test [2] (setting [4]), 5.30 to 6.00.

With `Cc1cc([C@@H](C)Nc2ccc(Cl)nc2C(=O)NS(C)(=O)=O)c2nc(N3CCC4(CCCN(c5ccn(C)n5)C4)C3)n(C)c(=O)c2c1` (stereo partly drawn) [Compound 708, 6-chloro-3-(((1R)-1-(3,6-dimethyl-2-(7-(1-methyl-1H-pyrazol-3-yl)-2,7-diazaspiro[4.5]decan-2-yl)-4-oxo-3,4-dihydroquinazolin-8-yl)ethyl)amino)-N-(methylsulfonyl) picolinamide], the pIC50 in test [1] (setting [3]) was 6.30 to 6.60; in test [2] (setting [4]), no more than 5.30.

Turning to `Cc1cc([C@@H](C)Nc2ccc(Cl)nc2C(=O)NS(C)(=O)=O)c2nc(N3CCC[C@H](C#N)C3)n(C)c(=O)c2c1` [Compound 209, 6-chloro-3-(((R)-1-(2-((S)-3-cyanopiperidin-1-yl)-3,6-dimethyl-4-oxo-3,4-dihydroquinazolin-8-yl)ethyl)amino)-N-(methylsulfonyl) picolinamide], the pIC50 in test [1] (setting [5]) was greater than 6.60; in test [2] (setting [6]), 5.30 to 6.00.

Take `Cc1cc([C@@H](C)Nc2ccc(Cl)nc2C(=O)NS(C)(=O)=O)c2nc(N3CCC[C@H](Oc4cnc(C)cn4)C3)n(C)c(=O)c2c1` [Compound 383, 6-chloro-3-(((R)-1-(3,6-dimethyl-2-((S)-3-((5-methylpyrazin-2-yl)oxy)piperidin-1-yl)-4-oxo-3,4-dihydroquinazolin-8-yl)ethyl)amino)-N-(methylsulfonyl) picolinamide]: the values for the pIC50 in test [1] (setting [5]) and in test [2] (setting [6]) were 6.30 to 6.60 and no more than 5.30, respectively.

For the compound `Cc1cc([C@@H](C)Nc2ccc(Cl)nc2C(=O)NS(C)(=O)=O)c2nc(N3CCC(c4nn(C)cc4C)CC3)n(C)c(=O)c2c1` [Compound 248, ®-6-chloro-3-((1-(2-(4-(1,4-dimethyl-1H-pyrazol-3-yl)piperidin-1-yl)-3,6-dimethyl-4-oxo-3,4-dihydroquinazolin-8-yl)ethyl)amino)-N-(methylsulfonyl) picolinamide], the pIC50 in test [1] (setting [5]) was greater than 6.60; in test [2] (setting [6]), 5.30 to 6.00.

With `Cc1cc([C@@H](C)Nc2ccc(Cl)nc2C(=O)NS(C)(=O)=O)c2nc(-c3ccc4nn(C5CC5)cc4c3)n(C)c(=O)c2c1` [Compound 819, (R)-6-chloro-3-((1-(2-(2-cyclopropyl-2H-indazol-5-yl)-3,6-dimethyl-4-oxo-3,4-dihydroquinazolin-8-yl)ethyl)amino)-N-(methylsulfonyl) picolinamide], the pIC50 in test [1] (setting [3]) is 6.30 to 6.60; in test [2] (setting [4]) it was 5.30 to 6.00.

Turning to `Cc1cc([C@@H](C)Nc2ccc(Cl)nc2C(=O)NS(C)(=O)=O)c2nc(N3CCC(n4ncc5cc(N)ccc54)CC3)n(C)c(=O)c2c1` [Compound 278, (R)-3-((1-(2-(4-(5-amino-1H-indazol-1-yl)piperidin-1-yl)-3,6-dimethyl-4-oxo-3,4-dihydroquinazolin-8-yl)ethyl)amino)-6-chloro-N-(methylsulfonyl) picolinamide], the pIC50 in test [1] (setting [5]) was greater than 6.60; in test [2] (setting [6]) it was 5.30 to 6.00.

`Cc1cc([C@@H](C)Nc2ccc(Cl)nc2C(=O)NS(C)(=O)=O)c2nc(N3CCC(c4nn(C)c5ccccc45)CC3)n(C)c(=O)c2c1` [Compound 675, (R)-6-chloro-3-((1-(3,6-dimethyl-2-(4-(1-methyl-1H-indazol-3-yl)piperidin-1-yl)-4-oxo-3,4-dihydroquinazolin-8-yl)ethyl)amino)-N-(methylsulfonyl) picolinamide]: the values for the pIC50 in test [1] (setting [3]) and in test [2] (setting [4]) were 6.30 to 6.60 and no more than 5.30, respectively.
